Source: patent publication US9096594B2, “Kinase inhibitors and methods of use thereof” (priority 2012, dated 2015)
Converted amounts (≈) assume the structure as drawn. Where two headings read alike, the source gives them in different places. Each block holds one compound with its values, some of them ahead of it.

Legend:
CDK5 = CDK5 (Homo sapiens (Human), UniProt Q00535); test: Carna Biosciences kinase assay, CDK5; type: biochemical
Procedure: (§1) Briefly, a selection of compounds was screened against a panel of kinases at a single concentration of 10 μM. […] This was completed utilizing one of two assays depending on the kinase being examined.
(§2) Test compounds were dissolved in and diluted with dimethylsulfoxide (DMSO) to generate a 100× sample solution. These were then diluted to 4× sample solutions in assay buffer to make the final test compound solutions. Reference compounds for assay control were prepared similarly.
(§3) A solution of IMAP binding reagent (IMAP Screening Express kit; Molecular Devices) (60 μL) was added to each well and incubated for 30 minutes.
(§4) A solution of termination buffer (QuickScout Screening assist MSA; Carna Biosciences) (60 μL) was added to each well. The entire reaction mixture was then applied to a LabChip3000 system (Caliper Life Science) and the product and substrate peptide peaks were separated and quantified.
(§5) The assay utilized was identical to that of the single point inhibitory activity determination (MSA) but run in dose response. […] A solution of termination buffer (QuickScout Screening assist MSA; Carna Biosciences) (60 μL) was added to each well. The entire reaction mixture was then applied to a LabChip3000 system (Caliper Life Science) and the product and substrate peptide peaks were separated and quantified.

CDK9 = CDK9 (Homo sapiens (Human), UniProt P50750); test: Carna Biosciences kinase assay, CDK9; type: biochemical
Sequence of CDK9 (P50750 whole entry): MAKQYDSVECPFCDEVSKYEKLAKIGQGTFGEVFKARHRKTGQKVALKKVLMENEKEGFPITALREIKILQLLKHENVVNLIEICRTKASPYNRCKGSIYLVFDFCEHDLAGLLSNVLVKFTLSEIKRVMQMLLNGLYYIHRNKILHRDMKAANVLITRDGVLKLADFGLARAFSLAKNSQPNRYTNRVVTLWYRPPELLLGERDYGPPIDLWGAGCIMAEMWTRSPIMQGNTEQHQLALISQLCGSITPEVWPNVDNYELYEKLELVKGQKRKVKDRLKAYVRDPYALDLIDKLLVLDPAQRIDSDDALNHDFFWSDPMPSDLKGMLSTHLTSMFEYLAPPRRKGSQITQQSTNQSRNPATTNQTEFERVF
Sequence of CDK9 (O60563 whole entry partner): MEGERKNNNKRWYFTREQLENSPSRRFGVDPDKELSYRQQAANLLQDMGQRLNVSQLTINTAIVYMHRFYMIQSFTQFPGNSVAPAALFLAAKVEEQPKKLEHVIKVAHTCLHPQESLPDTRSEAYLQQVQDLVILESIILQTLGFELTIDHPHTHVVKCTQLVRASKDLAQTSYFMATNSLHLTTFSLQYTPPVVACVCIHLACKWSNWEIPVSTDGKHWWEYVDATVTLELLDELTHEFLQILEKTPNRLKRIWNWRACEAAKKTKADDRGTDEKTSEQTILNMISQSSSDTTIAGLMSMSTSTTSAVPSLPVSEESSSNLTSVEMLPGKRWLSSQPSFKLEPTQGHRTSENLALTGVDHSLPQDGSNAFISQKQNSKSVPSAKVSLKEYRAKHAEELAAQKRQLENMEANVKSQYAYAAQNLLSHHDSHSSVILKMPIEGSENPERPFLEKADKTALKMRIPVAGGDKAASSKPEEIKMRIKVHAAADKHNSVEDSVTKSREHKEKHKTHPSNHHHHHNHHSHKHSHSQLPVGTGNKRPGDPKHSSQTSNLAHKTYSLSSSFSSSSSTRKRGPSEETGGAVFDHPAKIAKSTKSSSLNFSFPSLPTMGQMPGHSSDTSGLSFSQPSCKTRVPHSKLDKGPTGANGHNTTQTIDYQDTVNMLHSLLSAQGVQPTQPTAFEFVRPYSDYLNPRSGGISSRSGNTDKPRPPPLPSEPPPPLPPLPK
Procedure: as §1, §2, §3, §4

Erk5 = Erk5 (Homo sapiens (Human), UniProt Q13164); test: Carna Biosciences kinase assay, Erk5; type: biochemical
Sequence of Erk5 (Q13164 whole entry): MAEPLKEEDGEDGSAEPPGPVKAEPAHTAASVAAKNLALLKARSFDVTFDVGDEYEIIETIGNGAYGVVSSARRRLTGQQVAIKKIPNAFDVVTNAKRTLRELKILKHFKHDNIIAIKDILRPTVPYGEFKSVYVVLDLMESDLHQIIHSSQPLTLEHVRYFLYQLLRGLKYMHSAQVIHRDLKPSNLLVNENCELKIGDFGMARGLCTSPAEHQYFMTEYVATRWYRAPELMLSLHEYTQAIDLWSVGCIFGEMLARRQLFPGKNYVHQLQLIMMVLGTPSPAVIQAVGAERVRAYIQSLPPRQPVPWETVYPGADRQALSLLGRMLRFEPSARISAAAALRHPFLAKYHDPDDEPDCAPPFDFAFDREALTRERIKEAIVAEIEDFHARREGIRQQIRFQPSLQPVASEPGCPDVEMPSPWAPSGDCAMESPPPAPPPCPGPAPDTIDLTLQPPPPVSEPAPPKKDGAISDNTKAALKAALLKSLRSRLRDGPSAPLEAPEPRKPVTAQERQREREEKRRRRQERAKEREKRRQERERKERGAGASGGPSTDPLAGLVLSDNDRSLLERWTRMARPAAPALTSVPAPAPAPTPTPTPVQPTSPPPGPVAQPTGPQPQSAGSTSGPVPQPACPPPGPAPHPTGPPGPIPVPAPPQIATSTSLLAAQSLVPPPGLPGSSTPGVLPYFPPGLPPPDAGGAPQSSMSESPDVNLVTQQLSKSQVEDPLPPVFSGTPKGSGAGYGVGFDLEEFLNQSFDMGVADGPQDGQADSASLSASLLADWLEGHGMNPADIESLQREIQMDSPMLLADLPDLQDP
Procedure: as §1, §2, §3, §4

LIMK1 = LIMK1 (Homo sapiens (Human), UniProt P53667); test: Carna Biosciences kinase assay, LIMK1; type: biochemical
Sequence of LIMK1 (P53667 whole entry): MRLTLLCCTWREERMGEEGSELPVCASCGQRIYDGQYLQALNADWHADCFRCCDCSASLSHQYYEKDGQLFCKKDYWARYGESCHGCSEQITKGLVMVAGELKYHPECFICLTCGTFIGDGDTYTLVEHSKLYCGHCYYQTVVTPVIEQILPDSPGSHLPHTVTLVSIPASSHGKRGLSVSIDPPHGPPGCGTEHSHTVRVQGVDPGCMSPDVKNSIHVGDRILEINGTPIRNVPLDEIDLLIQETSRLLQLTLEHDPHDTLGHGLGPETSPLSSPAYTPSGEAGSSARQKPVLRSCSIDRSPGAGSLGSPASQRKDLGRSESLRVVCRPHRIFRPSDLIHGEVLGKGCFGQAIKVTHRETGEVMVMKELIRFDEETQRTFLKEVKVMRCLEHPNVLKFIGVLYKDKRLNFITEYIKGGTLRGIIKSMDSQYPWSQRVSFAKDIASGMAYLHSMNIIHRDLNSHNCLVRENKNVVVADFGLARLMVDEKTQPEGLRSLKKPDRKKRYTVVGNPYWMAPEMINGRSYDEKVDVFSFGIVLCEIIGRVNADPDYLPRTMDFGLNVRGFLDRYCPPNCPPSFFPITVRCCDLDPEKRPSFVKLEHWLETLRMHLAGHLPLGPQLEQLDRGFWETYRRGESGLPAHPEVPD
Procedure: as §1, §2, §3, §4

PLK1 = PLK1 (Homo sapiens (Human), UniProt P53350); test: Carna Biosciences kinase assay, PLK1; type: biochemical
Sequence of PLK1 (P53350 whole entry): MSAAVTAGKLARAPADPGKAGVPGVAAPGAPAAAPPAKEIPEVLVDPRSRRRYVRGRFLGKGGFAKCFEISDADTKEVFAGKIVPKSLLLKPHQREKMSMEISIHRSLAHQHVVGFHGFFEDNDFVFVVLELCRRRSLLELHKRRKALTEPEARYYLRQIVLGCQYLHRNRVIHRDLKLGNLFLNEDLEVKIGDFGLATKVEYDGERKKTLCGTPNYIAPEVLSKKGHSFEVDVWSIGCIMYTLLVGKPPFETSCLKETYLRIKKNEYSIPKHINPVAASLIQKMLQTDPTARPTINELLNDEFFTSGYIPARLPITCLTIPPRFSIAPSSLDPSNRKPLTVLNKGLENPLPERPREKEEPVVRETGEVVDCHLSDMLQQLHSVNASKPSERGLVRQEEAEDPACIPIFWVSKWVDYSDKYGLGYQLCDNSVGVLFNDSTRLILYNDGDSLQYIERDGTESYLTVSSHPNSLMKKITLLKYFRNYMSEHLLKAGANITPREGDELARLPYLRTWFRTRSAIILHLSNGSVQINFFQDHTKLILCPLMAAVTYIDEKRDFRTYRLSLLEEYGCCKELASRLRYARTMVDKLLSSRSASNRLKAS
Procedure: as §1, §2, §3, §4

panel of 311 kinases = test: Kinome-wide selectivity profile (Carna Biosciences, 311 kinases); type: biochemical
Procedure: as §1, §2, §3, §4

[1] = M (mouse)
[2] = tested on: TCF/LEF reporter in HEK293-pBARL cells; test: cells
Procedure: (§6) HEK293-pBARL cells were derived from HEK293 cells and they stably expressed a firefly-luciferase reporter gene driven by a promoter containing 12 copies of TCF/LEF binding sequences. These cells were maintained in DMEM and supplemented with 10% FBS and 1% penicillin-streptomycin (Invitrogen). Reporter gene assays were conducted in anti-biotic free media. […] These cells also contained a renilla-luciferase reporter gene driven by the ubiquitous EF1α promoter as a control. HEK293-pBarl reporter cell lines were seeded into 384-well culture plates (Corning) at 6000 cells/well. 24 hours after plating, cells were treated overnight with relevant compounds and assayed using DualGlo assay kit (Promega). Luminescent intensities were read by EnVision (PerkinElmer, Waltham, Mass.). Firefly luciferase intensity is normalized by renilla luciferase intensity.
(§7) Cells were cultured in 384 well plates to appropriate density (40 μl total plating volume). 24 hours after plating, cells were treated with 100 nl compounds. 24 hours after incubation with compounds (48 hours after plating), assay reagents were prepared by mixing Luciferase Assay solution with Luciferase substrate and Stop & Glo solution to Stop & Glo substrate (extra reagents can be aliquoted and frozen for future use and are stable for at least one freeze/thaw cycle). […] The plate was spun down and 10 minutes were allowed for signal stabilization. Luciferase signal on the Perkin Elmer EnVision using the following parameters: Distance between plate & detector (mm)=0.2; Measurement time(s)=0.1; Glow (CT2) correction factor=0. Once the initial data is secure, a volume of Stop & Glo was added equal to each well equal to the volume of Luciferase reagent added above (If 10 μl Luciferase Reagent was added, 10 μl Stop & Glo was also added). The plate was spun down and 10 minutes were allowed for signal stabilization. The plate was read on the EnVision using the same parameters detailed above.

[3] = tested on: amphetamine-induced hyperactivity in mice; test: Amphetamine-induced hyperactivity (AIH); type: in vivo, mouse; details: intracerebroventricular injection, vs vehicle
GSK3β [4] = target: T1, GSK3β (Homo sapiens (Human), UniProt P49841)
T1 sequence (P49841 whole entry): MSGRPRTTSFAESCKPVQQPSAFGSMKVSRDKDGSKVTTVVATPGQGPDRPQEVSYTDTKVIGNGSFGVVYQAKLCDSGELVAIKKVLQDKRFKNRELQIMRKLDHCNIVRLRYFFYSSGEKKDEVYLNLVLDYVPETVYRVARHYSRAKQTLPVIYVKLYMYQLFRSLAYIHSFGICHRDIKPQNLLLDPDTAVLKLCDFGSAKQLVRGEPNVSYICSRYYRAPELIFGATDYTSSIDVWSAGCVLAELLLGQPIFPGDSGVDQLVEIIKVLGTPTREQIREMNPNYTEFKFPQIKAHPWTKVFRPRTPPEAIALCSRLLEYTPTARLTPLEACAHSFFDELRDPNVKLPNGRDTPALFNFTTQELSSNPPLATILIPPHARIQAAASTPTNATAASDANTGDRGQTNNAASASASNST

GSK3α [5] = target: T2, GSK3α (Homo sapiens (Human), UniProt P49840)
T2 sequence (P49840 whole entry): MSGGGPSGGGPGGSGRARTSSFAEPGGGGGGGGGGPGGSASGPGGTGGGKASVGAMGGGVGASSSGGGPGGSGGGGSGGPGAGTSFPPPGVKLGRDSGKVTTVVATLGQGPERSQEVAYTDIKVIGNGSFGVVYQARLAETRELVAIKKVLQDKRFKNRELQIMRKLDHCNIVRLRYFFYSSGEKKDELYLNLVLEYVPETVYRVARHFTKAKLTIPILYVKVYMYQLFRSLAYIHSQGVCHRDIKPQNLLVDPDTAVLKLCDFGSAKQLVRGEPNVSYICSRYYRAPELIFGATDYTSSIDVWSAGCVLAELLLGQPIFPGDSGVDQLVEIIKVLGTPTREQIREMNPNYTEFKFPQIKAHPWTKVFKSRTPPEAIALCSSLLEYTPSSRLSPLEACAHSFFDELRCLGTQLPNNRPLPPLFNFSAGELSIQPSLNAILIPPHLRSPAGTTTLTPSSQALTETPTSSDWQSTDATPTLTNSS
Procedure: GSK3β Microfluidic Mobility-Shift Assay
Reactions were terminated by the addition of 10 mM EDTA. Substrate and product were separated electrophoretically and fluorescence intensity of the substrate and product was determined by Labchip EZ Reader II (Caliper Life Sciences, MA). The kinase activity was measured as percent conversion. The reactions were performed in duplicate for each sample. […] The results were analyzed by Genedata Assay Analyzer. The percent inhibition was plotted against the compound concentration and the IC50 value was determined from the logistic dose-response curve fitting.

GSK3α [6] = target: T2, GSK3α; details: read-out: IC50 (μM), GSK3α
GSK3β [7] = target: T1, GSK3β; details: read-out: IC50 (μM), GSK3β
GSK3β [8] = target: T1, GSK3β; remark: listed apart in the source
[9] = tested on: phospho-Tau (Ser199) in SH-SY5Y cells; test: Tau phosphorylation (Ser199) ELISA in SH-SY5Y cells; type: cell-based, human; details: Homo sapiens, SH-SY5Y, read-out: p-Tau (μM)
Procedure: Tau Phosphorylation and Total Tau Assay
SH-SY5Y cells were maintained in DMEM supplemented with 10% heat-inactivated FBS and 1% penicillin-streptomycin (Invitrogen) unless otherwise stated. ELISA kits for phospho-Tau (Ser199) and total Tau detection were purchased from Invitrogen (KHB0041, and KHB7041 respectively). Briefly, SH-SY5Y cells were seeded at 50,000 cells/200 μL/well in 96 well plates and after overnight incubation, treated with various doses of chemical compounds at 0.2 μL/well. The next day cells were washed with PBS twice before being lysed in 100 μL Lysis buffer/well. […]
A standard protocol using an immunoassay kit to quantify total Tau protein and phospho-Tau (Ser199) protein in SH-SY5Y human neuroblastoma cells was employed. […]
Well strips were warmed and inserted into the frame. […] Samples were loaded to each well that would be analyzed for total Tau, 85 μl standard diluent buffer and 15 μl cell lysate were added. To each well that will be analyzed for pTau (Ser199) 50 μl standard diluent buffer+50 μl cell lysate were added. […] Anti-total Tau was added to wells being analyzed for total Tau, anti-pTau (Ser199) was added to wells being analyzed for pTau (Ser199), and plates were tapped gently on the side to mix. […] Absorbance of each well was read at 450 nm (within 2 hours of adding stop solution).

[10] = tested on: β-catenin nuclear translocation in U2-OS cells; test: β-Catenin nuclear localization assay; type: cell-based
Procedure: β-Catenin Nuclear Localization Assay
U2-OS cells stably expressing two complimentary β-galactosidase fragments (one part on β-Catenin and the other constitutively expressed in the cell nucleus) were maintained in DMEM F12 supplemented with 10% FBS. When β-catenin translocates to the nucleus, the complimentary fragments form a complete β-galactosidase, the amount of which is then quantified by β-galactosidase activity (DiscoveRx). Cells were seeded in a 384-well CulturPlate (Perkin Elmer, Boston, Mass.) with 10,000 per well in 20 μL DMEM F12 containing 10% FCS, 100 U/ml penicillin and 100 μg/mL streptomycin. After overnight incubation at 37° C., cells were stimulated with 100 mL test compound/well and then returned to the incubator for 6 h. Cells were disrupted using 12 μL substrate-containing lysis buffer from the PathHunter Detection Kit in the formulation specified by the supplier (DiscoveRx). Plates were incubated in the dark for 1 h at room temperature before measurement of P3-galactosidase activity (luminescence) on an EnVision plate reader (PerkinElmer, Waltham, Mass.).

CDK2/CycA2 = CDK2/CycA2 (Homo sapiens (Human), UniProt P24941); test: Carna Biosciences kinase assay, CDK2/CycA2; type: biochemical; details: read-out: % Inhibition at 10 μM, CDK2/CycA2
Procedure: as §1, §2, §3, §4, §5

CDK2/CycE1 = CDK2/CycE1 (Homo sapiens (Human), UniProt P24941); test: Carna Biosciences kinase assay, CDK2/CycE1; type: biochemical; details: read-out: % Inhibition at 10 μM, CDK2/CycE1
Procedure: as §1, §2, §3, §4, §5

[11] = Plasma protein binding (equilibrium dialysis), human plasma; type: in vitro ADME
Procedure: Plasma protein binding was determined by equilibrium dialysis using the Rapid Equilibrium Dialysis (RED) device (Pierce Biotechnology, Rockford, Ill.) for both human and mouse plasma. Each compound was prepared in duplicate at 5 μM in plasma (0.95% acetonitrile, 0.05% DMSO) and added to one side of the membrane (200 μl) with PBS pH 7.4 added to the other side (350 μl). Compounds were incubated at 37° C. for 5 hours with a 250 rpm orbital shake.

GSH stability = type: physicochemical; details: 48 hours
Procedure: Stability was determined in the presence of PBS pH […] and 50 μM glutathione with 0.1% DMSO. Each compound was prepared in duplicate on six separate plates and allowed to equilibrate at room temperature with a 250 rpm orbital shake for 48 hours. One plate was removed at each time point (0, 2, 4, 8, 24, and 48 hours). […] Additionally, to the remaining material at each time point, acetonitrile was added to force dissolution of compound (to test for recovery of compound). An aliquot of this was also analyzed by UPLC-MS.

PBS stability = type: physicochemical; details: 48 hours of incubation, acetonitrile recovery
Procedure: Stability was determined in the presence of PBS pH 7.4 with 0.1% DMSO. Each compound was prepared in duplicate on six separate plates and allowed to equilibrate at room temperature with a 250 rpm orbital shake for 48 hours. One plate was removed at each time point (0, 2, 4, 8, 24, and 48 hours). […] Additionally, to the remaining material at each time point, acetonitrile was added to force dissolution of compound (to test for recovery of compound). An aliquot of this was also analyzed by UPLC-MS.

GSK3β [12] = target: T1, GSK3β; remark: listed apart in the source
[13] = tested on: TCF/LEF reporter in HEK293-pBARL cells; details: read-out: TCF/LEF EC50
Procedure: as §6, §7

[14] = mouse plasma, 5 hours
Procedure: Plasma stability was determined at 37° C. at 5 hours in both human and mouse plasma. […] Compounds were incubated at 37° C. for 5 hours with a 250 rpm orbital shake with time points taken at 0 and 5 hours.

physchem = details: phosphate buffered saline (PBS) with 1% DMSO, 23 °C, pH 7.4, aqueous buffer, kinetic from dmso stock
in vitro = details: mouse, mouse plasma, pH 7.4
Procedure: Plasma protein binding was determined by equilibrium dialysis using the Rapid Equilibrium Dialysis (RED) device (Pierce Biotechnology, Rockford, Ill.) for both human and mouse plasma. […] Compounds were incubated at 37° C. for 5 hours with a 250 rpm orbital shake.

GSK3β [15] = target: T1, GSK3β; test: biochemical
GSK3α [16] = target: T2, GSK3α; test: biochemical
GSK3β [17] = target: T1, GSK3β; test: biochemical; remark: listed apart in the source
SH-SY5Y cells = test: Cellular toxicity in SH-SY5Y cells; details: highest testing concentration of 30 μM
Procedure: Biochemical characterization of these synthesized compounds were assayed against GSK3β and CDK5/p25, with CDK5/p25 serving as a counter target of GSK3β selectivity. […] The effects of these compounds on survival of SH-SY5Y pathophysiology cells were also monitored.

Sequence of CDK5 (Q00535 whole entry): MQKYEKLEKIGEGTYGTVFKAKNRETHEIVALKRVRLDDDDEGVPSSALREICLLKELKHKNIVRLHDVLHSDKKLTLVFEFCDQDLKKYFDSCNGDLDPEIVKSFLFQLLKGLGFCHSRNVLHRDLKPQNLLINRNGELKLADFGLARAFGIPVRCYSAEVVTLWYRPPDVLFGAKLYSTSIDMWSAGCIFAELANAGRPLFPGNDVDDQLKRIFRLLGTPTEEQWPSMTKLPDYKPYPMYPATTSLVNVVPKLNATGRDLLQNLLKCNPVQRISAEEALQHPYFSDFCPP
Sequence of CDK5 (Q15078 99-307 partner): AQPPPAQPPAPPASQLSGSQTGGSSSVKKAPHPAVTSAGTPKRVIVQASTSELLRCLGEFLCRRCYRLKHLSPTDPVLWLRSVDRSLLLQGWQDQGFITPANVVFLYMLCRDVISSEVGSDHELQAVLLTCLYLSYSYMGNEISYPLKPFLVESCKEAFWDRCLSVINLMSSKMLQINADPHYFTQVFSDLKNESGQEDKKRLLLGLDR

% Inhibition at 10 μM, CDK5 (CDK5; 10 μM): 51.2%
% Inhibition at 10 μM, CDK9 (CDK9): 88.1%
% Inhibition at 10 μM, CDK9 (CDK9; listed as CHIR 99021): greater than 50%
% Inhibition at 10 μM, Erk5 (Erk5): 61.3%
% Inhibition at 10 μM, LIMK1 (LIMK1): 78.9%
% Inhibition at 10 μM, LIMK1 (LIMK1; listed as CHIR 99021): greater than 50%
% Inhibition at 10 μM, PLK1 (PLK1): 59.2%
Microsomal Stability (M:) [1]: M: 4%
SMILES: Cc1c[nH]c(-c2cnc(NCCNc3ccc(C#N)cn3)nc2-c2ccc(Cl)cc2Cl)n1 [CHIR99021]
number of kinases inhibited greater than 50% at 10 μM (panel of 311 kinases; 10 μM, 311 kinases): 21 kinases
EC50 ([2]; read-out: TCF/LEF (μM)): 6 µM

SMILES: COc1ccccc1[C@@H]1C2=C(CC(C)(C)CC2=O)Nc2n[nH]c(C)c21 [Compound 22]
IC50 (CDK5; dose response): 1.4 µM
effect on amphetamine-induced hyperactivity, ICV injection [3]: attenuate amphetamine-induced hyperactivity
IC50 (GSK3β [4]): < 100 nM
IC50 (GSK3α [5]): < 100 nM
IC50 (GSK3α [6]): 0.027 µM
IC50 (GSK3β [7]): 0.061 µM
mode of inhibition (Lineweaver-Burk plot) (GSK3β [8]): competitive inhibition

SMILES: COc1ccccc1[C@@H]1C2=C(CC(C)(C)CC2=O)Nc2n[nH]c(C(F)(F)F)c21 [Compound 54, (R)-4-(2-methoxyphenyl)-7,7-dimethyl-3-(trifluoromethyl)-6,7,8,9-tetrahydro-2H-pyrazolo[3,4-b]quinolin-5(4H)-one]
IC50 [9]: 1.03 µM
EC50 ([10]; Homo sapiens, U2OS, read-out: beta-Catenin Translocation (μM)): 5.28 µM
EC50 ([10]; read-out: beta-Catenin translocation EC50): 6.97 µM
inhibition at 10 µM (CDK2/CycA2): 78.7%
inhibition at 10 µM (CDK2/CycE1): 73.5%
% of the kinome (311 kinases) inhibited (panel of 311 kinases): 2.6%
Plasma protein binding % bound, human plasma [11]: 93%
fraction unbound at 5 h, 5 µM ([11]; human, pH 7.4, read-out: Plasma protein binding % bound, human plasma (converted)): 0.07
stability in glutathione (GSH), % remaining (GSH stability): 99%
stability in PBS, % still present (PBS stability): more than 95%
IC50 (GSK3β [4]; read-out: IC50 ADP Glo GSK3β): 20 nM
IC50 (GSK3α [5]): < 100 nM
IC50 (GSK3β [12]): < 100 nM
EC50 [13]: 5350 nM
Plasma stability % remaining (in mice) [14]: 99%
Microsomal Stability (M:) [1]: M: 0%
EC50 ([2]; read-out: TCF/LEF (μM)): 4.8 µM
EC50 ([2]; read-out: TCF/LEF EC50 (μM)): 5 µM
solubility at 24 h (physchem): 85 µM (≈ 33.3 µg/mL)
fraction unbound at 5 h, 5 µM (in vitro): 0.09
IC50 (GSK3β [15]): < 0.1 µM
IC50 (GSK3β [15]; IC50 ADP Glo GSK3β (μM)): 0.02 µM
IC50 (GSK3β [15]; IC50 against GSK3β at 7 μM ATP): 0.024 µM
IC50 (GSK3β [15]; IC50 against GSK3β at 100 μM ATP): 0.143 µM
IC50 (GSK3β [15]; Target IC50 (nM), GSK3β): 0.024 µM
IC50 (GSK3α [16]): 13 nM
IC50 (GSK3β [17]): 12 nM
cellular toxicity in SH-SY5Y cells (SH-SY5Y cells): no cellular toxicity
